Patent EP3211076A1, “NOVEL ALPHA-GLUCOSIDASE” (Showa Sangyo Co., Ltd., priority 2014, dated 2016)

Assays:
[1] = system: α-Glucosidase Derived from NBRC4239 Strain; assay: Substrate specificity of the enzyme; type: biochemical, Aspergillus sojae; details: 40°C, pH 6.0; for Relative Activity* (%): substrate 10mM, relative to decomposition rate of 10 mM maltose
Experimental: The substrate specificity of the present enzyme was evaluated at the conditions of 40°C and pH 6.0.

[2] = system: α-Glucosidase Derived from NBRC4239 Strain; assay: Effect of metal ion on the enzyme activity; type: biochemical, Aspergillus sojae
Experimental: The hydrolytic activity using maltose as the substrate was measured as shown below. A 20 mM maltose (50µL) dissolved in the 20mM MES buffer (pH 6.0) and an enzyme solution diluted by the buffer are mixed and incubated at 40°C for 30 min., then, 1 µL of 10% oxalic acid solution was added and heated at 100°C for 10 min. to stop the reaction. The amount of liberated glucose in the reaction solution was measured by Glucose CII Test Wako (produced by Wako Pure Chemical Industries, Ltd.). One unit of α-glucosidase activity was defined as the amount of enzyme that catalyzes hydrolysis of 1 µmol of maltose per minute. The effect of various metal ions on the present enzyme was studied. The enzyme activity was analyzed according to <Analysis Method of α-Glucosidase Activity>.

Row | Compound | hydrolytic activity toward substrate (in words) [1] | Relative Activity* (%) [1] [%] | Specific Activity (%) ([2]; Concentration 5 mM added to reaction mixture, no addition = 100) | effect on the enzyme activity (in words) ([2]; addition of ions to the reaction mixture)
1 | OC[C@H]1O[C@H](O[C@H]2[C@H](O)[C@@H](O)C(O)O[C@@H]2CO)[C@H](O)[C@@H](O)[C@@H]1O (mixture of isomers) [maltose] | well hydrolytic activities | 100 | – | –
2 | OC[C@H]1O[C@@H]2O[C@H]3[C@H](O)[C@@H](O)[C@@H](O[C@H]4[C@H](O)[C@@H](O)[C@@H](O[C@H]5[C@H](O)[C@@H](O)[C@@H](O[C@H]6[C@H](O)[C@@H](O)[C@@H](O[C@H]7[C@H](O)[C@@H](O)[C@@H](O[C@H]8[C@H](O)[C@@H](O)[C@@H](O[C@H]1[C@H](O)[C@H]2O)O[C@@H]8CO)O[C@@H]7CO)O[C@@H]6CO)O[C@@H]5CO)O[C@@H]4CO)O[C@@H]3CO [β-cyclodextrine] | well hydrolytic activities | 48 | – | –
3 | OC[C@H]1O[C@@H]2O[C@H]3[C@H](O)[C@@H](O)[C@@H](O[C@H]4[C@H](O)[C@@H](O)[C@@H](O[C@H]5[C@H](O)[C@@H](O)[C@@H](O[C@H]6[C@H](O)[C@@H](O)[C@@H](O[C@H]7[C@H](O)[C@@H](O)[C@@H](O[C@H]8[C@H](O)[C@@H](O)[C@@H](O[C@H]9[C@H](O)[C@@H](O)[C@@H](O[C@H]1[C@H](O)[C@H]2O)O[C@@H]9CO)O[C@@H]8CO)O[C@@H]7CO)O[C@@H]6CO)O[C@@H]5CO)O[C@@H]4CO)O[C@@H]3CO [γ-cyclodextrine] | a little low | 14 | – | –
4 | OC[C@H]1O[C@H](O[C@H]2[C@H](O)[C@@H](O)[C@@H](O[C@H]3[C@H](O)[C@@H](O)[C@@H](O[C@H]4[C@H](O)[C@@H](O)[C@@H](O[C@H]5[C@H](O)[C@@H](O)[C@@H](O[C@H]6[C@H](O)[C@@H](O)[C@@H](O[C@H]7[C@H](O)[C@@H](O)C(O)O[C@@H]7CO)O[C@@H]6CO)O[C@@H]5CO)O[C@@H]4CO)O[C@@H]3CO)O[C@@H]2CO)[C@H](O)[C@@H](O)[C@@H]1O (stereo partly drawn) [maltoheptaose] | – | 57 | – | –
5 | O=C(O)CN(CCN(CC(=O)O)CC(=O)O)CC(=O)O [EDTA] | – | – | 85 | inhibited the activity somewhat
6 | kojibiose | well hydrolytic activities | 91 | – | –
7 | OC[C@H]1O[C@H](OC[C@H]2O[C@H](OC[C@H]3OC(O)[C@H](O)[C@@H](O)[C@@H]3O)[C@H](O)[C@@H](O)[C@@H]2O)[C@H](O)[C@@H](O)[C@@H]1O (stereo partly drawn) [isomaltotriose] | – | 161 | – | –
8 | OC[C@H]1O[C@H](O[C@H]2[C@H](O)[C@@H](O)[C@@H](O[C@H]3[C@H](O)[C@@H](O)[C@@H](O[C@H]4[C@H](O)[C@@H](O)[C@@H](O[C@H]5[C@H](O)[C@@H](O)C(O)O[C@@H]5CO)O[C@@H]4CO)O[C@@H]3CO)O[C@@H]2CO)[C@H](O)[C@@H](O)[C@@H]1O (stereo partly drawn) [maltopentaose] | – | 41 | – | –
9 | OC[C@H]1O[C@H](OC[C@H]2O[C@H](OC[C@H]3O[C@H](OC[C@H]4OC(O)[C@H](O)[C@@H](O)[C@@H]4O)[C@H](O)[C@@H](O)[C@@H]3O)[C@H](O)[C@@H](O)[C@@H]2O)[C@H](O)[C@@H](O)[C@@H]1O (stereo partly drawn) [isomaltotetraose] | – | 168 | – | –
10 | OC[C@H]1O[C@H](O[C@H]2[C@H](O)[C@@H](O)[C@@H](O[C@H]3[C@H](O)[C@@H](O)[C@@H](O[C@H]4[C@H](O)[C@@H](O)C(O)O[C@@H]4CO)O[C@@H]3CO)O[C@@H]2CO)[C@H](O)[C@@H](O)[C@@H]1O (stereo partly drawn) [maltotetraose] | a little low | 16 | – | –
11 | OC[C@H]1O[C@H](OC[C@H]2OC(O)[C@H](O)[C@@H](O)[C@@H]2O)[C@H](O)[C@@H](O)[C@@H]1O (stereo partly drawn) [isomaltose] | well hydrolytic activities | 163 | – | –
12 | OC[C@H]1O[C@H](OC[C@H]2O[C@H](O[C@H]3[C@H](O)[C@@H](O)C(O)O[C@@H]3CO)[C@H](O)[C@@H](O)[C@@H]2O)[C@H](O)[C@@H](O)[C@@H]1O (stereo partly drawn) [panose] | – | 153 | – | –
13 | OC[C@H]1O[C@H](O[C@H]2[C@H](O)[C@@H](CO)OC(O)[C@@H]2O)[C@H](O)[C@@H](O)[C@@H]1O (stereo partly drawn) [nigerose] | well hydrolytic activities | 153 | – | –
14 | OC[C@H]1O[C@H](O[C@H]2[C@H](O)[C@@H](O)[C@@H](O[C@H]3[C@H](O)[C@@H](O)C(O)O[C@@H]3CO)O[C@@H]2CO)[C@H](O)[C@@H](O)[C@@H]1O (stereo partly drawn) [maltotriose] | – | 45 | – | –
15 | OC[C@H]1O[C@@H]2O[C@H]3[C@H](O)[C@@H](O)[C@@H](O[C@H]4[C@H](O)[C@@H](O)[C@@H](O[C@H]5[C@H](O)[C@@H](O)[C@@H](O[C@H]6[C@H](O)[C@@H](O)[C@@H](O[C@H]7[C@H](O)[C@@H](O)[C@@H](O[C@H]1[C@H](O)[C@H]2O)O[C@@H]7CO)O[C@@H]6CO)O[C@@H]5CO)O[C@@H]4CO)O[C@@H]3CO [α-cyclodextrine] | well hydrolytic activities | 58 | – | –
16 | OC[C@H]1O[C@H](O[C@H]2O[C@H](CO)[C@@H](O)[C@H](O)[C@H]2O)[C@H](O)[C@@H](O)[C@@H]1O [trehalose] | very slight | 1 | – | –
17 | OC[C@H]1O[C@H](O[C@H]2[C@H](O)[C@@H](O)[C@@H](O[C@H]3[C@H](O)[C@@H](O)[C@@H](O[C@H]4[C@H](O)[C@@H](O)[C@@H](O[C@H]5[C@H](O)[C@@H](O)[C@@H](O[C@H]6[C@H](O)[C@@H](O)C(O)O[C@@H]6CO)O[C@@H]5CO)O[C@@H]4CO)O[C@@H]3CO)O[C@@H]2CO)[C@H](O)[C@@H](O)[C@@H]1O (stereo partly drawn) [maltohexaose] | – | 49 | – | –
